In patent publication US7435433B2, “Process for the isolation of oleane compounds isolated from the bark of arjun tree terminalia arjuna (Roxb.)” (Council of Scientific & Industrial Research, priority 2005, dated 2008):
≈ marks a conversion by molar mass, not a printed value.

Tests used:
[1] = tested on: MCF-7 (breast cancer) cells; experiment: In-vitro anticancer MTT assay, MCF-7; assay type: cell-based, human; settings: 6 h exposure, then 48 h; for IC90: Homo sapiens, MCF7, 90% inhibition of cell growth vs untreated control, read-out: Inhibitory Concentration (IC90) MCF-7
Protocol: (§1) The following six human cancer cell lines were procured from the Cell Repository of the National Center for Cell Sciences (NCCS) at Pune. Their corresponding ATCC No. and the organ from which they were isolated are also mentioned in the table described below:
(§2) Cytotoxicity testing in vitro was done by the method of (Woerdenbag et al., 1993; J. Nat. Prod. 56 (6): 849-856). 2×10^3 cells/well were incubated in the 5% CO2 incubator for 24 h to enable them to adhere properly to the 96 well polystyrene microplate (Grenier, Germany). Test compounds dissolved in 100% DMSO in at least five doses were added and left for 6 h after which the compound plus media was replaced with fresh media and the cells were incubated for another 48 h in the CO2 incubator at 37° C.
(§3) Then, 10 μl MTT [3-(4,5-dimethylthiazol-2-yl)-2,5-diphenyltetrazolium bromide; Sigma M 2128] was added, and plates were incubated at 37° C. for 4 h. 100 μl dimethyl sulfoxide (DMSO, Merck, Germany) were added to all wells and mixed thoroughly to dissolve the dark blue crystals. After a few minutes at room temperature to ensure that all crystals were dissolved, the plates were read on a SpectraMax 190 Microplate Elisa reader (Molecular Devices Inc., USA), at 570 nm. Plates were normally read within 1 h of adding the DMSO. The experiment was done in triplicate and the inhibitory concentration (IC) values were calculated as follows: % inhibition=[1-OD (570 nm) of sample well/OD (570 nm) of control well]×100. IC90 is the concentration μg/ml required for 90% inhibition of cell growth as compared to that of untreated control. […] It was also found to be active against breast adenocarcinoma, liver and ovarian cancer cell lines at 20-60 μg/ml.
(§4) IC90: Concentration required to inhibit 90% of cell growth as compared to that of control.

[2] = tested on: WRL-68 (liver cancer) cells; experiment: In-vitro anticancer MTT assay, WRL-68; assay type: cell-based; settings: Homo sapiens, WRL68, 90% inhibition of cell growth vs untreated control, 6 h exposure, then 48 h, read-out: Inhibitory Concentration (IC90) WRL-68
Protocol: as §1, §2
(§5) Then, 10 μl MTT [3-(4,5-dimethylthiazol-2-yl)-2,5-diphenyltetrazolium bromide; Sigma M 2128] was added, and plates were incubated at 37° C. for 4 h. […] After a few minutes at room temperature to ensure that all crystals were dissolved, the plates were read on a SpectraMax 190 Microplate Elisa reader (Molecular Devices Inc., USA), at 570 nm. Plates were normally read within 1 h of adding the DMSO. The experiment was done in triplicate and the inhibitory concentration (IC) values were calculated as follows: % inhibition=[1-OD (570 nm) of sample well/OD (570 nm) of control well]×100. […]

[3] = tested on: Caco-2 (colon adenocarcinoma) cells; experiment: In-vitro anticancer MTT assay, Caco-2; assay type: cell-based, human; settings: for IC90: Homo sapiens, Caco-2, read-out: Inhibitory Concentration (IC90) Caco-2; for Inhibitory Concentration (IC90) Caco-2: MTT assay, 90% inhibition of cell growth vs untreated control, 6 h exposure, then 48 h
Protocol: as §1, §2, §3, §4

[4] = tested on: PA-1 (ovary cancer) cells; experiment: In-vitro anticancer MTT assay, PA-1; assay type: cell-based, human; settings: 90% inhibition of cell growth vs untreated control, 6 h exposure, then 48 h
Protocol: as §1, §2, §3, §4

Neisseria gonorrhoeae = settings: cited from earlier work
[5] = tested on: breast adenocarcinoma, liver and ovarian cancer cell lines; experiment: In-vitro anticancer MTT assay, summary over three cell lines; assay type: cell-based; settings: Homo sapiens, range over three cell lines, read-out: active concentration (IC90) against breast adenocarcinoma, liver and ovarian cancer cell lines
Protocol: as §1, §2, §5

[6] = tested on: TA98 and TA100 strains of salmonella typhimurium; settings: cited from earlier work
[7] = tested on: BT-20 human breast carcinoma cells; settings: cited from earlier work

Work on `CC1(C)CCC2(C(=O)OC3OC(CO)C(O)C(O)C3O)CCC3(C)C(=CCC4C5(C)CC(O)C(O)C(C)(C)C5CCC43C)C2C1O` (stereo not drawn) [Arjunetin, arjunetin] yielded an IC90 [1] of 50 µg/mL (≈ 76.8 µM), an IC90 [2] of 20 µg/mL (≈ 30.7 µM) and an IC90 [3] of 10 µg/mL (≈ 15.4 µM).

In the case of `CC1(C)CC[C@]2(C(=O)O[C@@H]3O[C@H](CO)[C@@H](O)[C@H](O)[C@H]3O)CC[C@]3(C)C(=CC[C@@H]4[C@@]5(C)C[C@@H](O)[C@H](O)[C@@](C)(CO)[C@@H]5CC[C@]43C)[C@@H]2[C@@H]1O` [Arjunglucoside-I, arjunglucoside-I], the “Inhibitory Concentration (IC90) Caco-2” value [3] is reported as greater than 50 µg/mL and the “Inhibitory Concentration (IC90) PA-1” value [4] is reported as greater than 50 µg/mL.

In the case of `O=c1cc(-c2ccc(O)c(O)c2)oc2cc(O)cc(O)c12` [Luteolin], the “activity against pathogenic bacteria” value (Neisseria gonorrhoeae) is listed as “specific activity”.

With `CC1(C)CCC2(C(=O)O)CCC3(C)C(=CCC4C5(C)CC(O)C(O)C(C)(C)C5CCC43C)C2C1O` (racemic) [Arjunic acid, 2±,3^2,19±-tri-hydroxy-olea-12-en-28-oic acid] the IC90 [1] was 50 µg/mL (≈ 102 µM), the IC90 [2] was 20 µg/mL (≈ 40.9 µM) and the IC90 [3] was 4.5 µg/mL (≈ 9.21 µM). It also gave an IC90 ([4]; Homo sapiens, read-out: Inhibitory Concentration (IC90) PA-1) of 60 µg/mL (≈ 123 µM) and an IC90 [5] of 20 to 60 µg/mL (≈ 40.9 to 123 µM).

For `O=c1oc2c(O)c(O)cc3c(=O)oc4c(O)c(O)cc1c4c23` [Ellagic acid], the “antimutagenic effect against 59-dependent 2AF” value [6] is listed as “quit effective” and the “antimutagenic effect against NPD” value [6] is listed as “moderate effect”.

In the case of arjungenin, the “Inhibitory Concentration (IC90) MCF-7” value ([1]; 90% inhibition of cell growth vs untreated control) is reported as greater than 50 µg/mL, the “Inhibitory Concentration (IC90) Caco-2” value [3] is reported as 50 µg/mL and the “Inhibitory Concentration (IC90) PA-1” value [4] is reported as 60 µg/mL.

In the case of `O=C(O[C@H]1[C@@H]2OC(=O)c3cc(O)c(O)c(O)c3-c3c(O)c(O)c4oc(=O)c5c(c(O)c(O)c6oc(=O)c3c4c65)-c3c(cc(O)c(O)c3O)C(=O)OC[C@H]2OC(O)[C@@H]1O)c1cc(O)c(O)c(O)c1` (stereo partly drawn) [Arjunin], the IC50 [7] is given as 6500 µg/mL (≈ 6950 µM) and the cytotoxic activity [7] is given as “moderate cytotoxic activity”.
